What follows are molecules tested against T1, cholesteryl ester transfer protein (CETP) from human lipoprotein-deprived serum (LPDS) (Homo sapiens, UniProt P11597) (assay: CETP inhibition in the presence of plasma (SPA assay, CETP source human lipoprotein-deprived serum)).
T1 construct: the source of CETP was human lipoprotein-deprived serum (LPDS); from tissue; host or cells: human lipoprotein-deprived serum (LPDS)
T1 sequence (P11597 18-493): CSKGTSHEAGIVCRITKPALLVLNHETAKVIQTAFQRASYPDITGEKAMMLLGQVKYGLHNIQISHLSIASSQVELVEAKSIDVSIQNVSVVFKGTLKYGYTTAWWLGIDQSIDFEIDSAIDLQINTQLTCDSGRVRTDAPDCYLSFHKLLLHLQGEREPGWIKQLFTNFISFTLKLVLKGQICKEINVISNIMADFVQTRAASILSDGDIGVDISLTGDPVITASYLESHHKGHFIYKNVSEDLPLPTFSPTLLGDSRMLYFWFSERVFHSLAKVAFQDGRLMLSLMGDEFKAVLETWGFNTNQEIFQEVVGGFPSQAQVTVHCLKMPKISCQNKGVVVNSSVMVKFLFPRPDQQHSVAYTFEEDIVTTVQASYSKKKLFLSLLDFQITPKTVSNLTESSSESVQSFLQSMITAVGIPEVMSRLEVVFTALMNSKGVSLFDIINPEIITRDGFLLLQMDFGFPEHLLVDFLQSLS
Format: biochemical
Method: Activity of CETP inhibitors was determined using a buffer assay system. Partially purified CETP transferred radiolabeled cholesteryl ester from HDL donor particles to biotin-labeled LDL acceptor particles. The reaction was stopped by addition of streptavidin-coupled scintillation proximity assay (SPA) beads. These beads captured the biotinylated acceptor particles and transferred radioactivity was measured. The assay system was purchased and performed according to manufacturer's recommendations (Amersham Biosciences). Inhibitory activity of compounds was determined as percentage of positive control activity containing CETP together with donor and acceptor particles. Serial dilution of compounds was performed in order to determine the IC50 values.
Activity of the compounds was subsequently measured in the presence of plasma using the same assay as described above except that the source of CETP was human lipoprotein-deprived serum (LPDS). Inhibitory activity of compounds was determined as percentage of positive control activity containing all the assay components except compound. Serial dilution of compounds was performed in order to determine the IC50 values.

Row | SMILES | IC50 [µM]
1 | CCC(=O)Nc1ccc(Cl)c(Cl)c1C(=O)N(CCc1cccc(C(F)(F)F)c1)Cc1ccc(C(C)(C)C)cc1 [Compound 13.230, N-(4-tert-Butyl-benzyl)-2,3-dichloro-6-propionylamino-N-[2-(3-trifluoromethyl-phenyl)-ethyl]-benzamide] | 5.61
2 | CC(C)(C)c1ccc(CN(CCc2cccc(C(F)(F)F)c2)C(=O)c2cccnc2N)cc1 [Compound 13.63, 2-Amino-N-(4-tert-butyl-benzyl)-N-[2-(3-trifluoromethyl-phenyl)-ethyl]-nicotinamide] | 30
3 | CNc1c(Cl)ccc(F)c1C(=O)N(CCc1cccc(C(F)(F)F)c1)Cc1ccc(C(C)(C)C)cc1 [Compound 13.254, N-(4-tert-Butyl-benzyl)-3-chloro-6-fluoro-2-methylamino-N-[2-(3-trifluoromethyl-phenyl)-ethyl]-benzamide] | 0.295

— patent US7678818B2, “Anthranilamide and 2-amino-heteroarene-carboxamide compounds” (Hoffmann-La Roche Inc., priority 2006, dated 2010)
